These results are taken from patent publication US11761045B2, “Splice variants associated with neomorphic SF3B1 mutants” (Eisai R&D Management Co., Ltd., priority 2015, dated 2023).

For assay [1], the system named is Nalm-6 SF3B1^K700K cells. The assay is described as follows: Splice variant levels in Nalm-6 isogenic cells by RNA-Seq. The assay is classed as cell-based, human. The following applies: additional compounds, FIG. 19. The procedure: (§1) To investigate the broader activity of E7107 on normal and aberrant splicing, RNA from Nalm-6 isogenic cells treated for two and six hours at 15 nM was analyzed by NanoString®. […] Normal and aberrant splicing in the isogenic cell lines was also analyzed by RNA-Seq following treatment with one of additional compounds having formulas 1 or 2. […] For the RNA-Seq analysis, cells were washed with PBS after treatment with E7107 or other test compound, and RNA was isolated using PureLink (Life Technology) as reported in the manufacturer's manual. cDNA library preparation, sequencing and raw read filtering was performed as described in Ren, S. et al. “RNA-Seq analysis of prostate cancer in the Chinese population identifies recurrent gene fusions, cancer-associated long noncoding RNAs and aberrant alternative splicings.” Cell Res 22, 806-821, doi:10.1038/cr.2012.30 (2012).

In assay [2] the test system is Nalm-6 SF3B1^K700E cells. Described as above. The following applies: additional compounds, FIG. 19. The assay is classed as cell-based, human. The procedure: as §1

Consider `C/C(=C\C=C\[C@@H](C)c1ccccn1)[C@H]1OC(=O)C[C@H](O)CC[C@@](C)(O)[C@@H](OC(=O)N2CCN(C3CCCCCC3)CC2)/C=C/[C@@H]1C` [Compound 1], for which the “expression of WT-associated and MUT-associated RNA isoforms by RNA-Seq” value in assay [1] was “inhibited expression of both WT-associated and MUT-associated RNA isoforms”; in assay [2], “inhibited expression of both WT-associated and MUT-associated RNA isoforms”.

For the compound `C/C(=C\C=C\[C@@H](C)c1ccccn1)[C@H]1OC(=O)C[C@H](O)CC[C@@](C)(O)[C@@H](OC(=O)N2CCN(C)CC2)/C=C/[C@@H]1C` [Compound 2], the “expression of WT-associated and MUT-associated RNA isoforms by RNA-Seq” value in assay [1] was “inhibited expression of both WT-associated and MUT-associated RNA isoforms”; in assay [2], “inhibited expression of both WT-associated and MUT-associated RNA isoforms”.
